Laboratory results as given in ChEMBL document CHEMBL1201862, “PubChem BioAssay data set” (2004).
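Five compound concentrations were applied to cells in 96-well plates for 48 hours; endpoints were derived by simple linear interpolation of the resulting dose-response curve. GI50: concentration for 50% inhibition of growth.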 Calls of active or inactive are those of the source. Cut-off read from the data, not from the text of the source: active = GI50 up to about 1.1 µM and inactive = higher.

What was measured:
Experiment in all cases: growth of human tumour cells (NCI), 48 h
SN12C = test system: SN12C
Malme-3M = test system: Malme-3M
HOP-62 = test system: HOP-62
CAKI-1 = test system: CAKI-1
NCI-H23 = test system: NCI-H23
OVCAR-8 = test system: OVCAR-8
K562 = test system: K562
TK-10 = test system: TK-10
UO-31 = test system: UO-31
SW-620 = test system: SW-620
EKVX = test system: EKVX
U-251 = test system: U-251
SNB-19 = test system: SNB-19
MOLT-4 = test system: MOLT-4
UACC-257 = test system: UACC-257
KM12 = test system: KM12
NCI-H522 = test system: NCI-H522
COLO 205 = test system: COLO 205
SK-OV-3 = test system: SK-OV-3

Measured: GI50

CS(=O)(=O)NNS(=O)(=O)c1ccccc1
inactive: SN12C > 100 µM | Malme-3M > 100 µM | HOP-62 > 100 µM | CAKI-1 > 100 µM | NCI-H23 > 100 µM | OVCAR-8 > 100 µM | K562 > 100 µM | TK-10 > 100 µM | UO-31 > 100 µM | SW-620 > 100 µM | EKVX > 100 µM | U-251 > 100 µM | SNB-19 > 100 µM | MOLT-4 > 100 µM | UACC-257 > 100 µM | KM12 > 100 µM | NCI-H522 > 100 µM | COLO 205 > 100 µM

COc1cccc(C2N3CCCCC3[C@@H]3c4[nH]c5ccccc5c4CCN23)c1OC (stereo not given in full)
inactive: SN12C 16.9 µM | HOP-62 15.9 µM | CAKI-1 16.2 µM | NCI-H23 16.9 µM | OVCAR-8 16.5 µM | K562 14.7 µM | TK-10 19.3 µM | UO-31 14.9 µM | SW-620 17.3 µM | EKVX 17.9 µM | U-251 17.2 µM | SNB-19 11.9 µM | MOLT-4 17.5 µM | UACC-257 15.9 µM | SK-OV-3 17.5 µM | COLO 205 15.2 µM

CC/C(=N/O)c1ccc2[nH]c3c(C)cc([N+](=O)[O-])c(C)c3c2c1
inactive: SN12C 76.2 µM | Malme-3M 51.3 µM | HOP-62 44 µM | CAKI-1 > 100 µM | NCI-H23 82.4 µM | OVCAR-8 53.2 µM | K562 20.1 µM | TK-10 15.2 µM | UO-31 57.8 µM | SW-620 84.7 µM | EKVX > 100 µM | SNB-19 > 100 µM | MOLT-4 29.6 µM | UACC-257 95.1 µM | KM12 37.4 µM | NCI-H522 22.9 µM | COLO 205 71.4 µM

Cc1cc2c(C=O)n[nH]c2c(C#N)c1C
inactive: SN12C 29.3 µM | Malme-3M > 100 µM | HOP-62 > 100 µM | NCI-H23 29.6 µM | OVCAR-8 43 µM | K562 > 100 µM | TK-10 > 100 µM | UO-31 34.5 µM | SW-620 40.6 µM | EKVX > 100 µM | U-251 60.3 µM | SNB-19 > 100 µM | MOLT-4 > 100 µM | UACC-257 43.5 µM | KM12 34.7 µM | SK-OV-3 > 100 µM | NCI-H522 10.4 µM | COLO 205 > 100 µM

Nc1ccc2nc(NCc3ccc(F)cc3)cnc2c1
inactive: SN12C > 100 µM | Malme-3M > 100 µM | HOP-62 > 100 µM | NCI-H23 > 100 µM | OVCAR-8 > 100 µM | K562 > 100 µM | TK-10 > 100 µM | UO-31 21.3 µM | SW-620 > 100 µM | EKVX > 100 µM | U-251 > 100 µM | SNB-19 44.5 µM | MOLT-4 50.1 µM | KM12 > 100 µM | NCI-H522 > 100 µM | COLO 205 > 100 µM

CC1=C(C(=O)Nc2ccccc2C)C(c2ccccc2O)C(C(=O)Nc2ccccc2C)=C(C)N1
inactive: SN12C 19.5 µM | Malme-3M 26.7 µM | HOP-62 21.1 µM | CAKI-1 23.4 µM | NCI-H23 34.2 µM | OVCAR-8 19.8 µM | K562 25.2 µM | TK-10 29.2 µM | UO-31 16.8 µM | SW-620 33 µM | EKVX 30.8 µM | SNB-19 23.4 µM | MOLT-4 27.5 µM | UACC-257 22 µM | KM12 14.7 µM

N#CC(C(=N/O)/C(=N\O)C(C#N)c1ccccc1)c1ccccc1 (stereo not given)
inactive: SN12C > 100 µM | Malme-3M > 100 µM | HOP-62 > 100 µM | NCI-H23 > 100 µM | OVCAR-8 > 100 µM | K562 > 100 µM | TK-10 > 100 µM | UO-31 > 100 µM | SW-620 > 100 µM | EKVX > 100 µM | U-251 > 100 µM | SNB-19 > 100 µM | MOLT-4 > 100 µM | UACC-257 > 100 µM | KM12 > 100 µM | SK-OV-3 > 100 µM | NCI-H522 > 100 µM | COLO 205 > 100 µM

CCCCNS(=O)(=O)c1ccc(-c2ccc3c(c2)-c2ccc(S(=O)(=O)NCCCC)cc2S3(=O)=O)cc1
inactive: Malme-3M 14.9 µM | HOP-62 14.9 µM | NCI-H23 12.7 µM | OVCAR-8 7.98 µM | K562 3.03 µM | TK-10 28.8 µM | UO-31 42.5 µM | SW-620 15.2 µM | EKVX 39.4 µM | U-251 23 µM | MOLT-4 > 100 µM | UACC-257 13.1 µM | KM12 22.9 µM | SK-OV-3 16.9 µM | NCI-H522 14.5 µM | COLO 205 25.3 µM

[N-]=[N+]=NCC(O)Cn1cnc2c(NC(=O)c3ccccc3)ncnc21 (stereo not given)
inactive: SN12C > 100 µM | Malme-3M > 100 µM | HOP-62 > 100 µM | CAKI-1 > 100 µM | NCI-H23 > 100 µM | OVCAR-8 > 100 µM | K562 79.4 µM | TK-10 > 100 µM | UO-31 > 100 µM | SW-620 43.8 µM | EKVX > 100 µM | U-251 > 100 µM | SNB-19 > 100 µM | MOLT-4 > 100 µM | UACC-257 > 100 µM | KM12 > 100 µM | NCI-H522 > 100 µM | COLO 205 27.8 µM

Nc1ncnc2c1ncn2C1OC(CSC(F)(F)F)C(O)C1O (stereo not given)
inactive: SN12C > 100 µM | Malme-3M > 100 µM | HOP-62 > 100 µM | CAKI-1 > 100 µM | NCI-H23 > 100 µM | OVCAR-8 > 100 µM | K562 > 100 µM | TK-10 > 100 µM | UO-31 > 100 µM | SW-620 > 100 µM | EKVX > 100 µM | U-251 > 100 µM | MOLT-4 > 100 µM | UACC-257 > 100 µM | KM12 > 100 µM | SK-OV-3 > 100 µM | NCI-H522 > 100 µM | COLO 205 > 100 µM

O=C(CC(=O)c1cccc([N+](=O)[O-])c1)C(=O)Nc1ccccc1
inactive: SN12C > 100 µM | Malme-3M > 100 µM | HOP-62 > 100 µM | CAKI-1 > 100 µM | NCI-H23 > 100 µM | OVCAR-8 > 100 µM | K562 > 100 µM | TK-10 > 100 µM | UO-31 > 100 µM | SW-620 > 100 µM | EKVX > 100 µM | U-251 > 100 µM | SNB-19 > 100 µM | MOLT-4 > 100 µM | UACC-257 > 100 µM | KM12 > 100 µM | NCI-H522 > 100 µM

C[Si](C)(C)/C(Br)=C\CCN1C(=O)CCC1=O
inactive: SN12C > 100 µM | Malme-3M > 100 µM | HOP-62 > 100 µM | CAKI-1 > 100 µM | NCI-H23 > 100 µM | OVCAR-8 > 100 µM | K562 > 100 µM | TK-10 > 100 µM | UO-31 > 100 µM | SW-620 > 100 µM | EKVX > 100 µM | U-251 > 100 µM | SNB-19 > 100 µM | MOLT-4 > 100 µM | UACC-257 > 100 µM | KM12 > 100 µM | SK-OV-3 > 100 µM | COLO 205 > 100 µM

COc1ccc2cc3n(c2c1)CCc1cc(OC)c(OC)cc1-3
inactive: SN12C > 100 µM | HOP-62 > 100 µM | CAKI-1 > 100 µM | NCI-H23 > 100 µM | OVCAR-8 > 100 µM | K562 > 100 µM | TK-10 > 100 µM | UO-31 > 100 µM | SW-620 > 100 µM | EKVX > 100 µM | U-251 77.1 µM | SNB-19 > 100 µM | MOLT-4 > 100 µM | UACC-257 92.3 µM | KM12 > 100 µM | SK-OV-3 > 100 µM | NCI-H522 > 100 µM | COLO 205 > 100 µM

Nc1nc2sc3ccccc3c(=O)n2n1
inactive: SN12C > 100 µM | Malme-3M > 100 µM | HOP-62 > 100 µM | CAKI-1 > 100 µM | NCI-H23 > 100 µM | OVCAR-8 > 100 µM | K562 > 100 µM | TK-10 > 100 µM | UO-31 > 100 µM | SW-620 > 100 µM | EKVX 64.7 µM | U-251 > 100 µM | SNB-19 > 100 µM | MOLT-4 > 100 µM | UACC-257 > 100 µM | KM12 > 100 µM | SK-OV-3 > 100 µM | COLO 205 > 100 µM

Cc1cc(O)nc(NNC(C#N)c2ccc(N(C)C)cc2)n1 (stereo not given)
inactive: SN12C > 100 µM | Malme-3M > 100 µM | HOP-62 > 100 µM | CAKI-1 > 100 µM | NCI-H23 > 100 µM | OVCAR-8 > 100 µM | K562 > 100 µM | TK-10 > 100 µM | UO-31 > 100 µM | SW-620 > 100 µM | U-251 > 100 µM | UACC-257 > 100 µM | KM12 > 100 µM | SK-OV-3 > 100 µM | NCI-H522 > 100 µM | COLO 205 > 100 µM

C[C@@H](NC1CCCC[C@H]1O)c1ccccc1 (stereo not given in full)
inactive: SN12C > 100 µM | Malme-3M > 100 µM | HOP-62 > 100 µM | NCI-H23 > 100 µM | OVCAR-8 > 100 µM | K562 > 100 µM | TK-10 > 100 µM | UO-31 > 100 µM | SW-620 > 100 µM | EKVX > 100 µM | U-251 > 100 µM | SNB-19 > 100 µM | MOLT-4 > 100 µM | UACC-257 > 100 µM | KM12 > 100 µM | SK-OV-3 > 100 µM | NCI-H522 > 100 µM | COLO 205 > 100 µM
